Results from patent publication US20260165974A1, “Moisture-proof L-a-glycerylphosphorylcholine” (NANJING NUTRABUILDING BIO-TECH CO., LTD., priority 2023, published 2026).

Columns and labels:
Format in all cases: physicochemical
[1] = Hygroscopicity: moisture absorption weight gain in artificial climate box; conditions: temperature 25° C., relative humidity 75%
Protocol: Specific test method: A dry glass weighing bottle with plug (outer diameter 50 mm, height 15 mm) was placed in an artificial climate box (temperature 25° C., relative humidity 75%) one day before the test, and was accurately weighed (m1). An appropriate amount of test sample was spread in the weighing bottle (thickness of test sample is generally about 1 mm), and it was accurately weighed (m2). The weighing bottle was opened and placed with the bottle cap under the above-mentioned constant temperature and humidity conditions. The weighing bottle was taken out at 5 min, 10 min, 20 min, 30 min, 60 min, 120 min and 180 min respectively, and accurately weighed (m3). The weight gain percentage was calculated according to the calculation formula: weight gain percentage=100%× (m3−m2)/(m2−m1).

[2] = Fluidity and repose angle before and after open storage at 25° C./75% RH for 0~3 h
Protocol: (§1) Study method: 5 g of sample was weighed into a weighing dish (60*30 mm), and placed in an open position at 25° C./75% RH to observe the moisture-proof effect for 0˜3 h.

[3] = Passing rate of 20-mesh sieve at 25° C./75% RH
Protocol: as §1
(§2) See Table 3-1 for the scoring standards of some examples. See Table 3-2 for the score results of fluidity, adhesiveness and deliquescence of moisture-proof L-α-glycerylphosphorylcholine.

[4] = Score of fluidity, adhesiveness and deliquescence at 25° C./75% RH
Protocol: as §1, §2

[5] = after open placing at 25° C./75% RH, 3 h
[6] = before placing at 25° C./75% RH

C[N+](C)(C)CCOP(=O)([O-])OC[C@H](O)CO [Raw material 1, L-α-glycerylphosphorylcholine]
weight gain percentage ([1]; 5 min): 3.0% | weight gain percentage ([1]; 10 min): 4.2% | weight gain percentage ([1]; 20 min): 7.4% | weight gain percentage ([1]; 30 min): 9.5% | weight gain percentage ([1]; 60 min): 12.3% | weight gain percentage ([1]; 120 min): 14.6% | weight gain percentage ([1]; 180 min): 18.5%

C[N+](C)(C)CCOP(=O)([O-])OC[C@H](O)CO [Raw material 2, L-α-glycerylphosphorylcholine]
weight gain percentage ([1]; 5 min): 3.2% | weight gain percentage ([1]; 10 min): 4.1% | weight gain percentage ([1]; 20 min): 7.2% | weight gain percentage ([1]; 30 min): 9.4% | weight gain percentage ([1]; 60 min): 12.6% | weight gain percentage ([1]; 120 min): 14.4% | weight gain percentage ([1]; 180 min): 18.7%

C[N+](C)(C)CCOP(=O)([O-])OC[C@H](O)CO [Raw material, L-α-glycerylphosphorylcholine]
Appearance and fluidity, After [2, 5]: All deliquescent and | Repose angle, After [2, 5]: unmeasurable | Appearance and fluidity, Before [2, 6]: Crystalloid/particle, good | Repose angle, Before [2, 6]: 41° | passing rate of 20-mesh sieve ([3]; 5 min): 97% | passing rate of 20-mesh sieve ([3]; 10 min): 35% | passing rate of 20-mesh sieve ([3]; 20 min): 24% | passing rate of 20-mesh sieve ([3]; 30 min): 2% | passing rate of 20-mesh sieve ([3]; 60 min): 0% | passing rate of 20-mesh sieve ([3]; 120 min): 0% | passing rate of 20-mesh sieve ([3]; 180 min): 0% | score of fluidity, adhesiveness and deliquescence ([4]; 5 min): 9 | score of fluidity, adhesiveness and deliquescence ([4]; 10 min): 0 | score of fluidity, adhesiveness and deliquescence ([4]; 20 min): 0 | score of fluidity, adhesiveness and deliquescence ([4]; 30 min): 0 | score of fluidity, adhesiveness and deliquescence ([4]; 60 min): 0 | score of fluidity, adhesiveness and deliquescence ([4]; 120 min): 0 | score of fluidity, adhesiveness and deliquescence ([4]; 180 min): 0
